Molecular target: ROCK (Homo sapiens, UniProt Q13464)
Assay: ROCK radioactive enzyme assay (33P)
Type: biochemical
Conditions: 13 μM [γ-33P] ATP, 27 μM MBP, 5 nM ROCK, room temperature
Method: Compounds are screened for their ability to inhibit ROCK using a standard radioactive enzyme assay. Assays are carried out in a solution containing 100 mM HEPES (pH 7.5), 10 mM MgCl2, 25 mM NaCl, 2 mM DTT and 1.5% DMSO. Final substrate concentrations in the assay are 13 μM [γ-^33P] ATP (25 mCi ^33P ATP/mmol ATP, Perkin Elmer, Cambridge, Mass./Sigma Chemicals, St Louis, Mo.) and 27 μM Myelin Basic Protein (MBP). Final enzyme concentration in the assay is 5 nM ROCK. Assays are carried out at room temperature. 1.5 μl of DMSO stock containing serial dilutions of the compound of the present invention (concentrations ranging from 10 μM to 2.6 nM) is placed in a 96 well plate. 50 μl of Solution 1 (100 mM HEPES (pH 7.5), 10 mM MgCl2, […] [γ-^33P] ATP) is added to the plate. The reaction is initiated by addition of 50 μl of Solution 2 (100 mM HEPES (pH 7.5), 10 mM MgCl2, 4 mM DTT, […] and 10 nM ROCK). After 2 hours the reaction is quenched with 50 μL of 30% trichloroacetic acid (TCA, Fisher) containing 9 mM ATP. Transfer of 140 μL of the quenched reaction to a glass fiber filter plate (Corning, Cat. No. 3511) is followed by washing 3 times with 5% TCA. 50 μL of Optima Gold scintillation fluid (Perkin Elmer) is added and the plates are counted on a Top Count (Perkin Elmer). After removing mean background values for all of the data points the data is fit using Prism software to obtain a Ki(app).
(§1) Table 3 depicts enzyme inhibition data (Ki) for certain exemplary compounds. Compound numbers in Table 3 correspond to those compounds depicted in Table 1.

Chain of ROCK (Q13464 6-553): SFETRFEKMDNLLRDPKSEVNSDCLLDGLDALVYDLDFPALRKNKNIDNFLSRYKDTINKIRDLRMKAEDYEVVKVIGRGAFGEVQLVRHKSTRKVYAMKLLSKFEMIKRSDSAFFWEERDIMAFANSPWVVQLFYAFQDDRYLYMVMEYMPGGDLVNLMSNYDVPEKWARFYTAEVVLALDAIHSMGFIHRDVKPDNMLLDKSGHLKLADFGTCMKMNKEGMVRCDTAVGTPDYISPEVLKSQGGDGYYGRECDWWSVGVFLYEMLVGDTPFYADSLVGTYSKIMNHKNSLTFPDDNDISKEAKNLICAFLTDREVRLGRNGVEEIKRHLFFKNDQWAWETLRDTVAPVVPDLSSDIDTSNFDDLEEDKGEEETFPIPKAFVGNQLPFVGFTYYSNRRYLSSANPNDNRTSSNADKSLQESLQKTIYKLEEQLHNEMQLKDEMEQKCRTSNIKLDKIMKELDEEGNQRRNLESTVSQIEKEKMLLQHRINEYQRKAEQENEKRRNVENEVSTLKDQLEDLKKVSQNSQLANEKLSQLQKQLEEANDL

Structure (SMILES)	Ki
CS(=O)(=O)Nc1cccc(CNC(=O)c2cc(-c3n[nH]c4ncccc34)c[nH]2)c1 [Compound 11]	< 500 nM
CC(CO)NC(=O)c1cc(-c2n[nH]c3ncccc23)c[nH]1 (stereo not shown) [Compound 12]	500 to 5000 nM
COc1cccc(CNC(=O)c2cc(-c3n[nH]c4ncccc34)c[nH]2)c1 [Compound 13]	< 500 nM
O=C(NCc1cccc(OC(F)(F)F)c1)c1cc(-c2n[nH]c3ncccc23)c[nH]1 [Compound 14]	< 500 nM
O=C(NCc1ccc2c(c1)OCO2)c1cc(-c2n[nH]c3ncccc23)c[nH]1 [Compound 15]	< 500 nM
O=C(NCc1cccc(F)c1)c1cc(-c2n[nH]c3ncccc23)c[nH]1 [Compound 16]	< 500 nM
O=C(NCC1CCCCC1)c1cc(-c2n[nH]c3ncccc23)c[nH]1 [Compound 17]	< 500 nM
O=C(NCc1ccc(F)cc1)c1cc(-c2n[nH]c3ncccc23)c[nH]1 [Compound 18]	< 500 nM
CS(=O)(=O)Nc1cccc(CC(=O)Nc2cc(-c3n[nH]c4nccnc34)cs2)c1 [Compound 20]	< 500 nM

Now from value to compound:

Ki	Structure (SMILES)
< 500 nM	O=C(Cc1ccccc1)Nc1nc(-c2n[nH]c3ncccc23)cs1 [Compound 2]
< 500 nM	COc1cccc(CC(=O)Nc2nc(-c3n[nH]c4ncccc34)cs2)c1 [Compound 3]
< 500 nM	CCN(CC)S(=O)(=O)c1cccc(CC(=O)Nc2nc(-c3n[nH]c4ncccc34)cs2)c1 [Compound 4]
< 500 nM	CS(=O)(=O)Nc1cccc(CC(=O)Nc2nc(-c3n[nH]c4ncccc34)cs2)c1 [Compound 5]
< 500 nM	CS(=O)(=O)Nc1ccc(F)c(CC(=O)Nc2cc(-c3n[nH]c4ncccc34)cs2)c1 [Compound 6, 2-(2-Fluoro-5-methanesulfonylamino-phenyl)-N-[4-(1H-pyrazolo[3,4-b]pyridin-3-yl)-thiophen-2-yl]-acetamide]
< 500 nM	O=C(Cc1cccc(OCCCC2CCNCC2)c1)Nc1cc(-c2n[nH]c3ncccc23)cs1 [Compound 7, 2-(3-(3-Piperidin-4-yl-propoxy)-phenyl)-N-[4-(1H-pyrazolo[3,4-b]pyridin-3-yl)-thiophen-2-yl]-acetamide]
< 500 nM	CS(=O)(=O)Nc1cccc(CC(=O)Nc2cc(-c3n[nH]c4ncccc34)cs2)c1 [Compound 8, 2-(3-Methanesulfonylamino-phenyl)-N-[4-(1H-pyrazolo[3,4-b]pyridin-3-yl)-thiophen-2-yl]-acetamide]
< 500 nM	CS(=O)(=O)Nc1ccc(F)c(CC(=O)Nc2cc(-c3n[nH]c4nccnc34)cs2)c1 [Compound 9, N-(4-(1H-pyrazolo[3,4-b]pyrazin-3-yl)thiophen-2-yl)-2-(5-methsulfonamido-2-fluorophenyl)acetamide]
< 500 nM	CN(C)S(=O)(=O)c1cccc(CC(=O)Nc2cc(-c3n[nH]c4ncccc34)cs2)c1 [Compound 10, 2-(3-Dimethylsulfamoyl-phenyl)-N-[4-(1H-pyrazolo[3,4-b]pyridin-3-yl)-thiophen-2-yl]-acetamide]

Molecular target: ROCK I (AA 6-553) (Homo sapiens, UniProt Q13464)
Assay: ROCK I coupled enzyme assay (enzyme-linked)
Type: biochemical
Conditions: 45 μM ATP, 200 μM peptide, 45 nM ROCK I, 30° C.
Method: Compounds are screened for their ability to inhibit ROCK I (AA 6-553) activity using a standard coupled enzyme system (Fox et al. Protein Sci. 7: 2249, 1998). Reactions are carried out in a solution containing 100 mM HEPES (pH 7.5), 10 mM MgCl2, 25 mM NaCl, 2 mM DTT and 1.5% DMSO. Final substrate concentrations in the assay are 45 μM ATP (Sigma Chemicals, St Louis, Mo.) and 200 μM peptide (American Peptide, Sunnyvale, Calif.). Reactions are carried out at 30° C. and 45 nM ROCK I. Final concentrations of the components of the coupled enzyme system are 2.5 mM phosphoenolpyruvate, 350 μM NADH, 30 μg/ml pyruvate kinase and 10 μg/ml lactate dehydrogenase.
as §1

Chain of ROCK I (AA 6-553) (Q13464 6-553): as above

Ki	Structure (SMILES)
< 500 nM	O=C(N[C@H](CO)c1ccccc1)c1cc(-c2n[nH]c3ncccc23)c[nH]1 [Compound 1]

— patent US20060122185A1, “Bicyclic inhibitors of Rho kinase” (priority 2004, published 2006)
